The source of these data is PubChem BioAssay AID652002 (Sanford-Burnham Center for Chemical Genomics, 2013).

Active and inactive are the calls of the source. No rule for the calls is given here.

Assay [1] can be described thus: TRAIL sensitizers in caspase-8 expressing neuroblastoma cells, dose response, NB7 cells plus caspase-8, luminescence, panel (AID 652002). The conditions noted are these: NB7 neuroblastoma +caspase-8, no TRAIL, compound-alone cytotoxicity counter-screen, luminescence viability, NB7+Caspase-8. (In general: A counterscreen serves to expose hits that act by an unwanted route or on another target.)

Assay [2] addresses Tumor necrosis factor receptor superfamily member 10B (Homo sapiens) (UniProt O14763). The description is as above. To be noted: NB7 neuroblastoma +caspase-8, TRAIL sensitization, luminescence viability; NB7+Caspase-8; with TRAIL, mean of runs.
The target of another assay is NB7+Caspase-8. The assay is described as above. To be noted: NB7 neuroblastoma +caspase-8, TRAIL sensitization, luminescence viability, with TRAIL.
[3] abbreviates: run 1, single replicate panel EC50.
The mark [4] stands for this setting: run 2, single replicate panel EC50.

Chain of Tumor necrosis factor receptor superfamily member 10B (Homo sapiens) (O14763 whole entry, looked up): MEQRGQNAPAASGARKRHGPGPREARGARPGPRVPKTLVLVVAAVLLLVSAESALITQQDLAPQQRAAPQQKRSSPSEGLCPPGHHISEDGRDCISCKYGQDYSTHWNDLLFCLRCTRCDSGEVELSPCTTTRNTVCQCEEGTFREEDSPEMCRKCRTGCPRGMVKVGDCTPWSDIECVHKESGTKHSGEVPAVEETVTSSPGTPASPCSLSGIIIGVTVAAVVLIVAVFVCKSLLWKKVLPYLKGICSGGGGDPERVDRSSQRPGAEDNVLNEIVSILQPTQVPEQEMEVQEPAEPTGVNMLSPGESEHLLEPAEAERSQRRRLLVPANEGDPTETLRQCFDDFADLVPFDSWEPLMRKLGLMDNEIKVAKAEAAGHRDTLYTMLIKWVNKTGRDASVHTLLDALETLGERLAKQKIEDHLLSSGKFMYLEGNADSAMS

In general, EC50 refers to the midpoint of the concentration-response curve. `O=C(NC(=O)c1ccccc1)Nc1ccccc1`: the EC50 is > 12.5 µM (inactive) in assay [1] (mean of runs); greater than 12.5 µM in assay [1] (setting [3]); greater than 12.5 µM in assay [1] (setting [4]); > 12.5 µM (inactive) in assay [2]; greater than 12.5 µM at NB7+Caspase-8 (setting [3]); greater than 12.5 µM at NB7+Caspase-8 (setting [4]).

As to `Cc1ccc(NC(=O)CSc2nc3ccc(Nc4nc(N5CCOCC5)nc(N5CCOCC5)n4)cc3s2)cc1`, the EC50 is > 12.5 µM (inactive) in assay [1] (mean of runs); greater than 12.5 µM in assay [1] (setting [3]); greater than 12.5 µM in assay [1] (setting [4]); > 12.5 µM (inactive) in assay [2]; greater than 12.5 µM on NB7+Caspase-8 (setting [3]); greater than 12.5 µM on NB7+Caspase-8 (setting [4]).

With `Cc1ccc(N=C/C(C(=O)C(F)(F)F)=C(\O)c2cccs2)cc1`, the EC50 entry in assay [1] (mean of runs) and in assay [2] was “inactive” in each case. The EC50 in assay [1] (setting [3]) was greater than 12.5 µM; in assay [1] (setting [4]), 1.87 µM; at NB7+Caspase-8 (setting [3]) it was 6.11 µM; at NB7+Caspase-8 (setting [4]), 4 µM.

Turning to `Cc1cccc2nc(=S)n(C(=O)c3ccco3)n12`, the EC50 in assay [1] (mean of runs) is > 12.5 µM (inactive); in assay [1] (setting [3]), greater than 12.5 µM; in assay [1] (setting [4]), greater than 12.5 µM; in assay [2], > 12.5 µM (inactive); at NB7+Caspase-8 (setting [3]) it was greater than 12.5 µM; on NB7+Caspase-8 (setting [4]), greater than 12.5 µM.

As for `CSc1ccc(/C=C/c2ccc3cccc(O)c3n2)cc1`, the EC50 entry in assay [1] (mean of runs) and in assay [2] was “inactive” each time. Further, the concentration for a half-maximal effect (EC50) was 7.93 µM in assay [1] (setting [3]), greater than 12.5 µM in assay [1] (setting [4]), greater than 12.5 µM on NB7+Caspase-8 (setting [3]) and 6.31 µM on NB7+Caspase-8 (setting [4]).

With `Cc1cc2nc3ccc(N(C)C)cc3nc2cc1N`, the EC50 in assay [1] (mean of runs) is > 12.5 µM (inactive); in assay [1] (setting [3]), greater than 12.5 µM; in assay [1] (setting [4]), greater than 12.5 µM; at NB7+Caspase-8 (setting [3]), greater than 12.5 µM; on NB7+Caspase-8 (setting [4]) it was 10.9 µM. Also, the EC50 entry in assay [2] is “inactive”.

In the case of `CCSc1ccc(-c2ccc(C)cc2)nn1`, the EC50 entry in assay [1] (mean of runs) and in assay [2] was “inactive” each time. Further, the EC50 is greater than 12.5 µM in assay [1] (setting [3]), 8.12 µM in assay [1] (setting [4]), greater than 12.5 µM at NB7+Caspase-8 (setting [3]) and 7.07 µM at NB7+Caspase-8 (setting [4]).

As to `O=C(N/N=C/c1cccc(OC(=O)c2ccco2)c1)c1ccc(F)cc1`, the EC50 result in assay [1] (mean of runs) and in assay [2] was “inactive” each time. In addition, the EC50 was found to be 4.46 µM in assay [1] (setting [3]), 7.04 µM in assay [1] (setting [4]), 4.82 µM at NB7+Caspase-8 (setting [3]) and 4.55 µM at NB7+Caspase-8 (setting [4]).

With `Cc1cc(NC(=O)C2CCCC2)nc2c1c(=O)oc1ccccc12`, the EC50 in assay [1] (mean of runs) was > 12.5 µM (inactive); in assay [1] (setting [3]) it was greater than 12.5 µM; in assay [1] (setting [4]) it was greater than 12.5 µM; in assay [2], > 12.5 µM (inactive); on NB7+Caspase-8 (setting [3]) it was greater than 12.5 µM; at NB7+Caspase-8 (setting [4]), greater than 12.5 µM.

Turning to `CCOc1ccc(-c2nnc(-c3ccccc3)o2)cc1`, the EC50 in assay [1] (mean of runs) is > 12.5 µM (inactive); in assay [1] (setting [3]) it was greater than 12.5 µM; in assay [1] (setting [4]), greater than 12.5 µM; at NB7+Caspase-8 (setting [3]), greater than 12.5 µM; on NB7+Caspase-8 (setting [4]) it was 10.7 µM. The EC50 entry in assay [2] is “inactive”.

In the case of `O/C(=C\c1ccc2ccccc2n1)c1ccc(O)cc1O`, the EC50 in assay [1] (mean of runs) was > 12.5 µM (inactive); in assay [1] (setting [3]), greater than 12.5 µM; in assay [1] (setting [4]), greater than 12.5 µM; on NB7+Caspase-8 (setting [3]) it was greater than 12.5 µM; on NB7+Caspase-8 (setting [4]) it was 7.58 µM. Also, the EC50 entry in assay [2] is “inactive”.

As for `CSc1nc(N)n2nc(-c3ccc(Cl)cc3)cc2n1`, the EC50 is > 12.5 µM (inactive) in assay [1] (mean of runs); greater than 12.5 µM in assay [1] (setting [3]); greater than 12.5 µM in assay [1] (setting [4]); > 12.5 µM (inactive) in assay [2]; greater than 12.5 µM at NB7+Caspase-8 (setting [3]); greater than 12.5 µM on NB7+Caspase-8 (setting [4]).

Turning to `CCOC(=O)c1ccc(N/C=C/C(=O)c2ccco2)cc1`, the EC50 in assay [1] (mean of runs) is > 12.5 µM (inactive); in assay [1] (setting [3]), greater than 12.5 µM; in assay [1] (setting [4]), greater than 12.5 µM; in assay [2], > 12.5 µM (inactive); at NB7+Caspase-8 (setting [3]), greater than 12.5 µM; on NB7+Caspase-8 (setting [4]), greater than 12.5 µM.

Regarding `O=C(N/N=C/c1ccc2cccnc2c1)c1ccco1`, the EC50 result in assay [1] (mean of runs) and in assay [2] was “inactive” in each case. The concentration giving a half-maximal response (EC50) in assay [1] (setting [3]) was 11.4 µM; in assay [1] (setting [4]) it was 12.1 µM; at NB7+Caspase-8 (setting [3]) it was greater than 12.5 µM; on NB7+Caspase-8 (setting [4]) it was 6.53 µM.

Turning to `CCCCCCc1cc2cc(S(=O)(=O)c3ccc(F)c(Cl)c3)c(=O)oc2cc1O`, the EC50 in assay [1] (mean of runs) is > 12.5 µM (inactive); in assay [1] (setting [3]), greater than 12.5 µM; in assay [1] (setting [4]), greater than 12.5 µM; in assay [2], > 12.5 µM (inactive); on NB7+Caspase-8 (setting [3]), greater than 12.5 µM; at NB7+Caspase-8 (setting [4]) it was greater than 12.5 µM.
